Measured values published in ChEMBL document CHEMBL1126543, “1,24S-dihydroxy-26,27-cyclo-22-yne-vitamin D3: the side chain triple bond analogue of MC 903 (calcipotriol)” (Bioorg Med Chem Lett, 1993).
The source made the active and inactive calls. The calls are words filed in the database; no cut-off is given here.

Legend:
Rattus norvegicus [1] = experiment: Tested for the effect on calcium homeostasis in rats dosed up to 100 ug/kg daily for 7 days; Compound was found to show no effect; type: functional, organism-based
Rattus norvegicus [2] = experiment: Tested for the hypercalciuria effect at 0.5 ug/kg by 1,25-(OH)2D3 for 7 days up to 100 ug/kg; compound produced marked hypercalciuria at 0.5 ug/kg; type: functional, organism-based

## C=C1/C(=C\C=C2/CCC[C@]3(C)[C@@H]([C@H](C)C#C[C@@H](O)C4CC4)CC[C@@H]23)C[C@@H](O)C[C@@H]1O
Rattus norvegicus [1]
  Activity: inactive
Rattus norvegicus [2]
  Activity: Marked hypercalciuria at 0.5 ug/kg
